Data reported in patent publication US10081624B2, “Heterocyclic compound” (Takeda Pharmaceutical Company Limited, priority 2014, dated 2018).

How the values were obtained:
HDAC6 enzyme = molecular target: T1, HDAC6 enzyme (Homo sapiens, UniProt Q9UBN7); test: HDAC6 enzyme inhibitory assay (HDAC-Glo I/II Assay kit); assay type: biochemical; settings: 1 μM test compound; read-out: HDAC6 inhibitory rate (%) (1 μM)
T1 construct: prepared by transducing full length HDAC1 and HDAC6 genes into Sf-9 insect cells; GST; purchased SignalChem; host or cells: Sf-9 insect cells
T1 sequence (Q9UBN7 1-1215): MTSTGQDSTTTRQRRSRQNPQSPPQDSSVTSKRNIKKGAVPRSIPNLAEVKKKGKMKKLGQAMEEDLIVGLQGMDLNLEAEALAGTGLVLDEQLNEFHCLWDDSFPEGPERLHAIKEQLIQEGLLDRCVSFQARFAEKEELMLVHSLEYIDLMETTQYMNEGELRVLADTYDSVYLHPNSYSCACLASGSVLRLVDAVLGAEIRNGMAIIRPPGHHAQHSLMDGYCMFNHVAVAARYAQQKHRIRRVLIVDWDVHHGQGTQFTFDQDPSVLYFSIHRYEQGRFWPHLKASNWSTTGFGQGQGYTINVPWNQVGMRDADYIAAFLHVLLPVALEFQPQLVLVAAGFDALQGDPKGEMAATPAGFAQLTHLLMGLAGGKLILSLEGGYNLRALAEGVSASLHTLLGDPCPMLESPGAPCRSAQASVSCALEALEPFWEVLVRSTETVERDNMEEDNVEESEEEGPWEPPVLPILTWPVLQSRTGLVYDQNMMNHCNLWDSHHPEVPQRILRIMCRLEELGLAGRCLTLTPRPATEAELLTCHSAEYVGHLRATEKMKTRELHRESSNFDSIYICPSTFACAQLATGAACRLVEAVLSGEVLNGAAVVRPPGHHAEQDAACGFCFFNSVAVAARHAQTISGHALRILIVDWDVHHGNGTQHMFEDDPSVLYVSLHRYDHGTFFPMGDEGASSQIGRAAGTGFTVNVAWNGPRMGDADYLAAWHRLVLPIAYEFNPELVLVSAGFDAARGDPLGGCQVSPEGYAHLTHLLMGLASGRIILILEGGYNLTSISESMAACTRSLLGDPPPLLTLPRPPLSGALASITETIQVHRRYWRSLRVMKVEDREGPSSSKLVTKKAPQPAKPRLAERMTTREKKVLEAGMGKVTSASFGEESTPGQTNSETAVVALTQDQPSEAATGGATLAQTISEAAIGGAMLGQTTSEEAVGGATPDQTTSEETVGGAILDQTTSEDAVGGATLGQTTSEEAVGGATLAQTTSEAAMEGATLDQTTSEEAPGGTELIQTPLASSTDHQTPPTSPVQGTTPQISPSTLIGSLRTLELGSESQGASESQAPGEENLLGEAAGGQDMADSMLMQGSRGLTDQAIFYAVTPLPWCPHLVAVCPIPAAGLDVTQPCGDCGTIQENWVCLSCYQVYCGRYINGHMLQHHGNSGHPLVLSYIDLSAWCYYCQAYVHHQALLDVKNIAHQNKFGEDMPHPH
Outline: (§1)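 Relative activity was calculated from luminescence, with wells lacking enzyme defined as 100% inhibition. The enzymes were full-length HDAC1 or HDAC6 from Sf-9 cells, preincubated with test compound for 60 min before a 20-min substrate-developer reaction at room temperature.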

HDAC1 enzyme = molecular target: T2, HDAC1 enzyme (Homo sapiens, UniProt Q13547); test: HDAC1 enzyme inhibitory assay (HDAC-Glo I/II Assay kit); assay type: biochemical; settings: 1 μM test compound; read-out: HDAC1 inhibitory rate (%) (1 μM)
T2 construct: prepared by transducing full length HDAC1 and HDAC6 genes into Sf-9 insect cells; GST; purchased SignalChem; host or cells: Sf-9 insect cells
T2 sequence (Q13547 whole entry): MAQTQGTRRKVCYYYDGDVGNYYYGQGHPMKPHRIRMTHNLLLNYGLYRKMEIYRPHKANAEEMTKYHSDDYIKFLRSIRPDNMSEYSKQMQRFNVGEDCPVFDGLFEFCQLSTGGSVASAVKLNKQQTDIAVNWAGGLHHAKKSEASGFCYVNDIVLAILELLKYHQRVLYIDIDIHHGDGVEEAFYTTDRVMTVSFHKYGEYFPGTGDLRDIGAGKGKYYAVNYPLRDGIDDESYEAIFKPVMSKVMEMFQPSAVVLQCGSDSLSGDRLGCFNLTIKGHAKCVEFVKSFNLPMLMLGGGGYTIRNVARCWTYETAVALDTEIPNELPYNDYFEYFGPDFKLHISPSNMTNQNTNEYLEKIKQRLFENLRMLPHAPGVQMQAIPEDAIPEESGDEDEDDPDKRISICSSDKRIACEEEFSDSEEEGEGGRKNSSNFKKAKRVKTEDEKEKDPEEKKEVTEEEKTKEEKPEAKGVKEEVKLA
Outline: as §1

Compound	inhibition at 1 µM (HDAC6 enzyme)	inhibition at 1 µM (HDAC1 enzyme)
O=C(NC[C@@H]1COCCN1C(=O)N1CCCCC1)c1ccc(-c2noc(C(F)(F)F)n2)cc1 [Example 158, N-(((3R)-4-(piperidin-1-ylcarbonyl)morpholin-3-yl)methyl)-4-(5-(trifluoromethyl)-1,2,4-oxadiazol-3-yl)benzamide]	97%	12%
O=C(C[C@H]1COCCN1C(=O)c1ccccc1)Nc1ccc(-c2noc(C(F)(F)F)n2)cc1 [Example 160, 2-((3S)-4-benzoylmorpholin-3-yl)-N-(4-(5-(trifluoromethyl)-1,2,4-oxadiazol-3-yl)phenyl)acetamide]	98%	15%
CN(C(=O)C[C@H]1COCCN1C(=O)c1ccccc1)c1ccc(-c2noc(C(F)(F)F)n2)cc1 [Example 161, 2-((3S)-4-benzoylmorpholin-3-yl)-N-methyl-N-(4-(5-(trifluoromethyl)-1,2,4-oxadiazol-3-yl)phenyl)acetamide]	48%	6%
O=C(NCC1COCCN1C(=O)c1ccccc1)c1ccc(-c2noc(C(F)(F)F)n2)cc1F (stereo not drawn) [Example 177, N-((4-benzoylmorpholin-3-yl)methyl)-2-fluoro-4-(5-(trifluoromethyl)-1,2,4-oxadiazol-3-yl)benzamide]	99%	27%
Cc1cc(C(=O)NCC2COCCN2C(=O)c2ccccc2)ccc1-c1noc(C(F)(F)F)n1 (stereo not drawn) [Example 179, N-((4-benzoylmorpholin-3-yl)methyl)-3-methyl-4-(5-(trifluoromethyl)-1,2,4-oxadiazol-3-yl)benzamide]	36%	-1%
O=C(NCC1COCCN1C(=O)c1cc(Cl)cc(Cl)c1)c1ccc(-c2noc(C(F)(F)F)n2)cn1 (stereo not drawn) [Example 182, N-((4-(3,5-dichlorobenzoyl)morpholin-3-yl)methyl)-5-(5-(trifluoromethyl)-1,2,4-oxadiazol-3-yl)pyridine-2-carboxamide]	97%	42%
O=C(NC[C@H]1COCCN1C(=O)c1cc(Cl)cc(Cl)c1)c1ccc(-c2noc(C(F)(F)F)n2)cn1 [Example 183, N-(((3S)-4-(3,5-dichlorobenzoyl)morpholin-3-yl)methyl)-5-(5-(trifluoromethyl)-1,2,4-oxadiazol-3-yl)pyridine-2-carboxamide]	97%	57%
Cn1nc2ccccc2c1C(=O)N1CCOC[C@@H]1CNC(=O)c1ccc(-c2noc(C(F)(F)F)n2)cn1 [Example 184, N-(((3S)-4-((2-methyl-2H-indazol-3-yl)carbonyl)morpholin-3-yl)methyl)-5-(5-(trifluoromethyl)-1,2,4-oxadiazol-3-yl)pyridine-2-carboxamide]	99%	77%
Cc1oncc1C(=O)N1CCOC[C@@H]1CNC(=O)c1ccc(-c2noc(C(F)(F)F)n2)cn1 [Example 193, N-(((3S)-4-((5-methyl-1,2-oxazol-4-yl)carbonyl)morpholin-3-yl)methyl)-5-(5-(trifluoromethyl)-1,2,4-oxadiazol-3-yl)pyridine-2-carboxamide]	97%	33%
Cc1nonc1C(=O)N1CCOC[C@@H]1CNC(=O)c1ccc(-c2noc(C(F)(F)F)n2)cn1 [Example 194, N-(((3S)-4-((4-methyl-1,2,5-oxadiazol-3-yl)carbonyl)morpholin-3-yl)methyl)-5-(5-(trifluoromethyl)-1,2,4-oxadiazol-3-yl)pyridine-2-carboxamide]	97%	36%

The remaining lines, values ahead:

inhibition at 1 µM (HDAC6 enzyme)	inhibition at 1 µM (HDAC1 enzyme)	Compound
42%	11%	CN(CC1COCCN1C(=O)c1ccccc1)C(=O)c1ccc(-c2noc(C(F)(F)F)n2)cc1 (stereo not drawn) [Example 159, N-((4-benzoylmorpholin-3-yl)methyl)-N-methyl-4-(5-(trifluoromethyl)-1,2,4-oxadiazol-3-yl)benzamide]
97%	16%	O=C(NCC1CCCN1C(=O)c1ccccc1)c1ccc(-c2noc(C(F)(F)F)n2)cc1 (stereo not drawn) [Example 162, N-((1-benzoylpyrrolidin-2-yl)methyl)-4-(5-(trifluoromethyl)-1,2,4-oxadiazol-3-yl)benzamide]
97%	25%	O=C(NCC1CCCCN1C(=O)c1ccccc1)c1ccc(-c2noc(C(F)(F)F)n2)cc1 (stereo not drawn) [Example 163, N-((1-benzoylpiperidin-2-yl)methyl)-4-(5-(trifluoromethyl)-1,2,4-oxadiazol-3-yl)benzamide]
98%	17%	Cn1nccc1C(=O)N1CCCC[C@@H]1CNC(=O)c1ccc(-c2noc(C(F)(F)F)n2)cc1 [Example 164, N-(((2R)-1-((1-methyl-1H-pyrazol-5-yl)carbonyl)piperidin-2-yl)methyl)-4-(5-(trifluoromethyl)-1,2,4-oxadiazol-3-yl)benzamide]
99%	17%	O=C(NCC1CN(C(=O)c2ccccc2)CCN1C(=O)c1ccccc1)c1ccc(-c2noc(C(F)(F)F)n2)cc1 (stereo not drawn) [Example 165, N-((1,4-dibenzoylpiperazin-2-yl)methyl)-4-(5-(trifluoromethyl)-1,2,4-oxadiazol-3-yl)benzamide]
93%	15%	O=C(NCC1Cc2ccccc2N1C(=O)c1ccccc1)c1ccc(-c2noc(C(F)(F)F)n2)cc1 (stereo not drawn) [Example 167, N-((1-benzoyl-2,3-dihydro-1H-indol-2-yl)methyl)-4-(5-(trifluoromethyl)-1,2,4-oxadiazol-3-yl)benzamide]
95%	8%	O=C(NCC1CCc2ccccc2N1C(=O)C1CC1)c1ccc(-c2noc(C(F)(F)F)n2)cc1 (stereo not drawn) [Example 172, N-((1-(cyclopropylcarbonyl)-1,2,3,4-tetrahydroquinolin-2-yl)methyl)-4-(5-(trifluoromethyl)-1,2,4-oxadiazol-3-yl)benzamide]
90%	16%	O=C(NCC1CCc2ccccc2N1C(=O)c1ccccc1)c1ccc(-c2noc(C(F)(F)F)n2)cc1 (stereo not drawn) [Example 173, N-((1-benzoyl-1,2,3,4-tetrahydroquinolin-2-yl)methyl)-4-(5-(trifluoromethyl)-1,2,4-oxadiazol-3-yl)benzamide]
97%	18%	O=C(NCC1Cc2ccccc2CN1C(=O)c1ccccc1)c1ccc(-c2noc(C(F)(F)F)n2)cc1 (stereo not drawn) [Example 175, N-((2-benzoyl-1,2,3,4-tetrahydroisoquinolin-3-yl)methyl)-4-(5-(trifluoromethyl)-1,2,4-oxadiazol-3-yl)benzamide]
24%	3%	Cc1cc(-c2noc(C(F)(F)F)n2)ccc1C(=O)NCC1COCCN1C(=O)c1ccccc1 (stereo not drawn) [Example 178, N-((4-benzoylmorpholin-3-yl)methyl)-2-methyl-4-(5-(trifluoromethyl)-1,2,4-oxadiazol-3-yl)benzamide]
97%	29%	O=C(NCC1COCCN1C(=O)c1ccccc1)c1ccc(-c2noc(C(F)(F)F)n2)cn1 (stereo not drawn) [Example 181, N-((4-benzoylmorpholin-3-yl)methyl)-5-(5-(trifluoromethyl)-1,2,4-oxadiazol-3-yl)pyridine-2-carboxamide]
